Assays:
[1] = system: satellite cells derived from mouse gastrocnemius and soleus muscles; test: Satellite cell proliferation in secondary satellite cell cultures (cell count per ocular grid); type: cell-based; settings: genistein added to culture medium as in Example 1, on day 1 or day 2; control 0.05% DMSO; P<0.0001 one day after, P<0.00001 at days 2-5 after addition; FIG. 2
Text: Method: To analyze satellite cell proliferation secondary satellite cell cultures derived from mouse gastrocnemius and soleus muscles prepared as in Example 1 were fed fresh medium every day. This generally accepted procedure prolongs proliferation and inhibits differentiation and fusion. Two experimental groups were formed by adding genistein to the culture medium, as in Example 1. […] Living cultures were placed on the stage of a phase-contrast microscope and the number of cells contained within an ocular grid was counted at 100× to 200× total magnification. This cell-counting procedure was performed daily through the sixth day of culture.

[2] = populations of Southeast Asians consuming 70 mg/day of genistein; cited from earlier work
[3] = system: mouse primary satellite cells; test: Fusion of mouse primary satellite cells to myofibers in culture (fusion index); type: cell-based; settings: genistein in culture medium, added on first, second or third day of culture; control 0.05% DMSO; day 3 P<0.002, day 5 P<0.0001 (Student's t-test); FIG. 1
Method: Method: Thigh muscle tissue was removed from post-natal day 20-30 mouse pups and the tissue reduced to single cells by a method based largely on a protocol by DiMario and Strohman (DiMario, J. and Strohman, R. C.; 1988). Gastrocnemius and soleus muscles were dissected free of surrounding tissue and finely minced with scissors. The minced tissue was mixed with 0.10% crude collagenase and incubated at 37° C. for 30 minutes with occasional trituration through the bore of a 5 ml glass pipette to break up tissue pieces. The collagenase-tissue slurry was centrifuged briefly to pellet the tissue pieces, muscle fibers, and cells. […] The number of cells was determined and aliquots were appropriately diluted with culture medium so that a known number of satellite cells (80,000) could be added to additional 35 mm collagen-coated dishes for analysis of cell proliferation and fusion. […]
Fusion of satellite cells to form muscle fibers is generally accomplished by removing the source of growth factors in the culture medium. […] As fusion of satellite cells to form myofibers began, the number of nuclei contained within mononucleated cells, primarily satellite cells, and those within myofibers were counted differentially at a magnification of 200×. […]

O=c1c(-c2ccc(O)cc2)coc2cc(O)cc(O)c12 [genistein, 5,7-dihydroxy-3-(4-hydroxyphenyl)-4H-1-benzopyran-4-one]
division of satellite cells (number of cells per reticle-grid vs control cultures) [1]: eliminated the division of satellite cells
ill effects on dietary consumption [2]: without obvious ill effects
fusion of satellite cells (fusion index vs control cultures) [3]: inhibited the fusion of satellite cells
